The target in the assay is T1, Androgen Receptor (AR) protein (Homo sapiens, UniProt P10275, T878A).
T1 construct: endogenous in cells; host or cells: LNCaP
Description: Androgen Receptor (AR) protein degradation assay in LNCaP cells, western blotting. It is filed as cell-based. Particulars: 20 h; for inhibition at 0.01 µM: 0.01 μM compound; for inhibition at 0.1 µM: 0.1 μM compound; for inhibition at 1 µM: 1 μM compound. The protocol:
Experimental Example 1: Androgen Receptor (AR) Protein Degradation Assay
After treating LNCaP cells with the synthesized Example compound, the amount of AR protein present in the cells was measured. The amount of AR protein was measured using western blotting detection method. The protocol of the experiment using LNCaP cells was as follows:
[Culture] LNCaP cells were resuspended in RPMI1640 MEDIUM (Hyclone, SH30027.01), 10% FBS (Hyclone, SV30207.02), and 1% Penicillin-streptomycin (Welgene, LS 202-02) media to be 3×10^5/mL. Then, 1 mL each was seeded in a 12-well plate. After that, they were cultured for 3 days.
[Compound treatment] 10 μl of 0.1, 1, 10, and 100 μM compound, which is the final compound treatment concentration and a 100× stock of 0.001, 0.01, 0.1, and 1 μM, was added in 1 ml media of each well, and 20 hours later, the cells were harvested.
[Cell Lysis] Cell pellets were suspended using 1% SDS lysis buffer (50 mM Tris, 1 mM EDTA, 1% SDS, pH 8.0, 0.5 mM PMSF, 1× Protease/Phosphatase inhibitor Cocktail (Cell Signaling Technology, 5872s)), and sonication (70% AMP, 5 cycles (30 sec ON/59 sec OFF)) was performed. Cell lysate was obtained after centrifugation at 4° C., 15000 g, for 20 minutes.
[Protein quantification] A BCA protein assay (SMART™ BCA Protein Assay Kit, iNtRON Biotechnology, 21071) was performed using a 96-well microplate. After adding 5 μl cell lysate and 5 μl 1% SDS lysis buffer to each well of the 96-well plate, 200 μl of BCA reagent (Reagent A:Reagent B=50:1) was additionally added. After incubation at 37° C. for 30 minutes, it was cooled at room temperature for 10 minutes. Then, absorbance was measured at a wavelength of 562 nm. The unknown protein concentration was measured using a BSA standard curve (0, 0.125, 0.25, 0.5, 1, 2 mg/ml). Western blotting samples were prepared by mixing cell lysate, 1% SDS lysis buffer, 4× Bolt™ LDS Sample buffer (Invitrogen, B0008), and 10× Bolt™ Sample Reducing Agent (Invitrogen, B0009) and boiling the mixture at 70° C. for 10 minutes.
[Electrophoresis] After loading 8 μg of protein sample into each well of Bolt™ 4 to 12%, Bis-Tris, 1.0 mm Mini Protein Gel, 17-well (Invitrogen, NW04127BOX), Bolt™ MES SDS Running Buffer (Invitrogen, B0002) was used for electrophoresis at 200V (constant V) for 50 minutes.
[Transfer] Using electrophoresis gel and Trans-Blot® Turbo™ Transfer Starter System (Bio-RAD, #17001918, Mini Nitrocellulose), transfer proceeded for 15 minutes under the condition of 1.3A (Constant A) and 25V (Limit V). To confirm protein transfer, 15 ml of Ponceau S solution (Sigma, P7170-1L) was used for staining for 1 minute, followed by washing to confirm the degree of transfer.
[Blocking] Membranes for AR detection were blocked for 45 minutes with 5% skim milk/0.2% TBST (Skim milk: BD, 232100/20× TBS: Biosesang, TR2008-100-00/10% Tween 20 Solution: Bio-RAD, #161-0781). Membranes for GAPDH and β-actin detection were blocked for 45 minutes with Odyssey blocking buffer: 0.1% TBST=1:1 (Odyssey blocking buffer: Li-COR Biosciences, 927-50000).
[Antibody and detection] The primary AR antibody (Androgen Receptor: CST, 5153s) was mixed with 5% skim milk/0.2% TBST at a ratio of 1:1000 and attached for 3 hours at room temperature. Primary β-actin antibody (GeneTex, 629630) was mixed with 5% BSA/0.2% TBST at a ratio of 1:2000 and attached for 3 hours at room temperature. Primary GAPDH antibody (GeneTex, 100118) was mixed with 5% BSA/0.2% TBST at a ratio of 1:2000 and attached for 3 hours at room temperature. After 3 hours, it was washed 3 times every 5 minutes using TBST (0.2% Tween 20). Anti-rabbit IgG, HRP-linked Antibody (CST, 7074s), secondary antibody for the AR antibody was mixed with 5% skim milk/0.2% TBST at a ratio of 1:5000 and attached for 45 minutes at room temperature. […]

T1 sequence (P10275 whole entry T878A): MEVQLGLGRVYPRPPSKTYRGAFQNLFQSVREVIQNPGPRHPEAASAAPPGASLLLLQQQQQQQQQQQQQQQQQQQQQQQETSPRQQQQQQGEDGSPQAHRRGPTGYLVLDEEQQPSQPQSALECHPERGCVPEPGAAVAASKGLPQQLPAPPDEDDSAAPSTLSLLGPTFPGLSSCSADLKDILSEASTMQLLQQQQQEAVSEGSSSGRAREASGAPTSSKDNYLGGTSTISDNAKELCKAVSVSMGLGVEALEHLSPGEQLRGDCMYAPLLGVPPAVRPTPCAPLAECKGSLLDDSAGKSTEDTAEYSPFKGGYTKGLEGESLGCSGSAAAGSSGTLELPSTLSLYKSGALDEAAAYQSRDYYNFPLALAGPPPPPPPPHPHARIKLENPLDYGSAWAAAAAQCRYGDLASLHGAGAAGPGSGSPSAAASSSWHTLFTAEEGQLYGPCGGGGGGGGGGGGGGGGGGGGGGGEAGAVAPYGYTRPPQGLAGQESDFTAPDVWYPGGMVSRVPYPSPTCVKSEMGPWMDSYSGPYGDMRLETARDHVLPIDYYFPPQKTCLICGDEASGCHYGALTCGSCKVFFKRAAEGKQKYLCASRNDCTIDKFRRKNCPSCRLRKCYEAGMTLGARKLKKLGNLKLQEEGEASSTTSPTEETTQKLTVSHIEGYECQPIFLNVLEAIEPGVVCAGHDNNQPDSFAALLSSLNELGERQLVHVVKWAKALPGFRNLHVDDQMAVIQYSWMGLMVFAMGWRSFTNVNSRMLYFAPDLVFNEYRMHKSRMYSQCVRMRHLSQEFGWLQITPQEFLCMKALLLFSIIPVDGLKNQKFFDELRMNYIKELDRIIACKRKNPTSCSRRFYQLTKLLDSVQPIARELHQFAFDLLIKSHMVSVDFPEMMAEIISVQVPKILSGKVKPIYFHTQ
T1 sequence (Q96SW2 whole entry partner): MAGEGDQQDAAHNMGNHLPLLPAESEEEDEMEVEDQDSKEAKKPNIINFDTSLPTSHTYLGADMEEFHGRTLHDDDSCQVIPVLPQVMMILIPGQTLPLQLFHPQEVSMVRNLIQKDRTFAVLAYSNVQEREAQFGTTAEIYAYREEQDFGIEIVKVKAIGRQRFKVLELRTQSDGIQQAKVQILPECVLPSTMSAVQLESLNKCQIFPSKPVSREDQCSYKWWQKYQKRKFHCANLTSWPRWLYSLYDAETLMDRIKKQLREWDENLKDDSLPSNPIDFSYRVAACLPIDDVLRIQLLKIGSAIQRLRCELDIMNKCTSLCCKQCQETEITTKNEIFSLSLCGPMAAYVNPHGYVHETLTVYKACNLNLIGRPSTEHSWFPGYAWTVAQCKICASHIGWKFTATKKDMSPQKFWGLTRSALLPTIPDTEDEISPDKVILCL

As for `N#Cc1ccc(N2CCC(C(=O)Nc3ccc(N4CCC(CN5CCN(CC6CCN(c7cccc8c7C(=O)N(C7CCC(=O)NC7=O)C8=O)CC6)CC5)CC4)cn3)CC2)cc1C(F)(F)F` (stereo not drawn) [Example 13, 1-(4-cyano-3-(trifluoromethyl)phenyl)-N-(5-(4-((4-((1-(2-(2,6-dioxopiperidin-3-yl)-1,3-dioxoisoindolin-4-yl)piperidin-4-yl)methyl)piperazin-1-yl)methyl)piperidin-1-yl)pyridin-2-yl)piperidine-4-carboxamide], the inhibition at 0.01 µM was found to be 59%, the inhibition at 0.1 µM came out at 91% and 1 µM produced 94% inhibition.

Molecule `N#Cc1ccc(N2CCC(C(=O)Nc3ccc(N4CCC(CN5CCN(C[C@H]6CCN(c7ccc8c(c7)C(=O)N(C7CCC(=O)NC7=O)C8=O)C6)CC5)CC4)cn3)CC2)cc1C(F)(F)F` (stereo partly drawn) [Example 14, 1-(4-cyano-3-(trifluoromethyl)phenyl)-N-(5-(4-((4-(((3R)-1-(2-(2,6-dioxopiperidin-3-yl)-1,3-dioxoisoindolin-5-yl)pyrrolidin-3-yl)methyl)piperazin-1-yl)methyl)piperidin-1-yl)pyridin-2-yl)piperidine-4-carboxamide] displayed an inhibition at 0.01 µM of 72%, an inhibition at 0.1 µM of 98% and an inhibition at 1 µM of 97%.

On to `N#Cc1ccc(N2CCC(C(=O)Nc3ccc(N4CCC(CN5CCN(C[C@@H]6CCN(c7ccc8c(c7)C(=O)N(C7CCC(=O)NC7=O)C8=O)C6)CC5)CC4)cn3)CC2)cc1C(F)(F)F` (stereo partly drawn) [Example 15, 1-(4-cyano-3-(trifluoromethyl)phenyl)-N-(5-(4-((4-(((3S)-1-(2-(2,6-dioxopiperidin-3-yl)-1,3-dioxoisoindolin-5-yl)pyrrolidin-3-yl)methyl)piperazin-1-yl)methyl)piperidin-1-yl)pyridin-2-yl)piperidine-4-carboxamide], for which the inhibition at 0.01 µM came to 60%, 0.1 µM produced 97% inhibition and the inhibition at 1 µM was found to be 98%.

`N#Cc1ccc(N2CCC(C(=O)Nc3ccc(N4CCC(CN5CCN(C[C@H]6CCCN(c7ccc8c(c7)C(=O)N(C7CCC(=O)NC7=O)C8=O)C6)CC5)CC4)cn3)CC2)cc1C(F)(F)F` (stereo partly drawn) [Example 16, 1-(4-cyano-3-(trifluoromethyl)phenyl)-N-(5-(4-((4-(((3R)-1-(2-(2,6-dioxopiperidin-3-yl)-1,3-dioxoisoindolin-5-yl)piperidin-3-yl)methyl)piperazin-1-yl)methyl)piperidin-1-yl)pyridin-2-yl)piperidine-4-carboxamide] showed an inhibition at 0.01 µM of 50%, an inhibition at 0.1 µM of 94% and an inhibition at 1 µM of 97%.

`N#Cc1ccc(N2CCC(C(=O)Nc3ccc(N4CCC(CN5CCN(C[C@@H]6CCCN(c7ccc8c(c7)C(=O)N(C7CCC(=O)NC7=O)C8=O)C6)CC5)CC4)cn3)CC2)cc1C(F)(F)F` (stereo partly drawn) [Example 17, 1-(4-cyano-3-(trifluoromethyl)phenyl)-N-(5-(4-((4-(((3S)-1-(2-(2,6-dioxopiperidin-3-yl)-1,3-dioxoisoindolin-5-yl)piperidin-3-yl)methyl)piperazin-1-yl)methyl)piperidin-1-yl)pyridin-2-yl)piperidine-4-carboxamide] displayed an inhibition at 0.01 µM of 44%, an inhibition at 0.1 µM of 90% and an inhibition at 1 µM of 90%.

`N#Cc1ccc(N2CCC(C(=O)Nc3ccc(N4CCC(CN5CCN(CC6CCN(c7cc8c(cc7F)C(=O)N(C7CCC(=O)NC7=O)C8=O)CC6)CC5)CC4)cn3)CC2)cc1C(F)(F)F` (stereo not drawn) [Example 18, 1-(4-cyano-3-(trifluoromethyl)phenyl)-N-(5-(4-((4-((1-(2-(2,6-dioxopiperidin-3-yl)-6-fluoro-1,3-dioxoisoindolin-5-yl)piperidin-4-yl)methyl)piperazin-1-yl)methyl)piperidin-1-yl)pyridin-2-yl)piperidine-4-carboxamide] yielded an inhibition at 0.01 µM of 36%, an inhibition at 0.1 µM of 93% and an inhibition at 1 µM of 95%.

The molecule `N#Cc1ccc(N2CCC(C(=O)Nc3ccc(N4CCC(CN5CCN(C[C@H]6CCN(c7cc8c(cc7F)C(=O)N(C7CCC(=O)NC7=O)C8=O)C6)CC5)CC4)cn3)CC2)cc1C(F)(F)F` (stereo partly drawn) [Example 19, 1-(4-cyano-3-(trifluoromethyl)phenyl)-N-(5-(4-((4-(((3R)-1-(2-(2,6-dioxopiperidin-3-yl)-6-fluoro-1,3-dioxoisoindolin-5-yl)pyrrolidin-3-yl)methyl)piperazin-1-yl)methyl)piperidin-1-yl)pyridin-2-yl)piperidine-4-carboxamide] yielded an inhibition at 0.01 µM of 42%, an inhibition at 0.1 µM of 93% and an inhibition at 1 µM of 96%.

Turning to `N#Cc1ccc(N2CCC(C(=O)Nc3ccc(N4CCC(CN5CCN(CC6CN(c7cc8c(cc7F)C(=O)N(C7CCC(=O)NC7=O)C8=O)C6)CC5)CC4)cn3)CC2)cc1C(F)(F)F` (stereo not drawn) [Example 20, 1-(4-cyano-3-(trifluoromethyl)phenyl)-N-(5-(4-((4-((1-(2-(2,6-dioxopiperidin-3-yl)-6-fluoro-1,3-dioxoisoindolin-5-yl)azetidin-3-yl)methyl)piperazin-1-yl)methyl)piperidin-1-yl)pyridin-2-yl)piperidine-4-carboxamide], the inhibition at 0.01 µM was found to be 67%, at 0.1 µM the inhibition was 97% and the inhibition at 1 µM came to 97%.

The molecule `N#Cc1ccc(N2CCC(C(=O)Nc3ccc(N4CCC(CN5CCN(CC6CCN(c7ccc8c(c7)C(=O)N(C7CCC(=O)NC7=O)C8=O)CC6)CC5)CC4)cc3)CC2)cc1C(F)(F)F` (stereo not drawn) [Example 21, 1-(4-cyano-3-(trifluoromethyl)phenyl)-N-(4-(4-((4-((1-(2-(2,6-dioxopiperidin-3-yl)-1,3-dioxoisoindolin-5-yl)piperidin-4-yl)methyl)piperazin-1-yl)methyl)piperidin-1-yl)phenyl)piperidine-4-carboxamide] gave an inhibition at 0.01 µM of 47%, an inhibition at 0.1 µM of 50% and an inhibition at 1 µM of 63%.

For `N#Cc1ccc(N2CCC(C(=O)Nc3ccc(N4CCC(CN5CCN(C[C@H]6CCN(c7ccc8c(c7)C(=O)N(C7CCC(=O)NC7=O)C8=O)C6)CC5)CC4)cc3)CC2)cc1C(F)(F)F` (stereo partly drawn) [Example 22, 1-(4-cyano-3-(trifluoromethyl)phenyl)-N-(4-(4-((4-(((3R)-1-(2-(2,6-dioxopiperidin-3-yl)-1,3-dioxoisoindolin-5-yl)pyrrolidin-3-yl)methyl)piperazin-1-yl)methyl)piperidin-1-yl)phenyl)piperidine-4-carboxamide], the inhibition at 0.01 µM was determined as 1%, at 0.1 µM the inhibition was 24% and at 1 µM the inhibition was 49%.

Regarding `C[C@@H]1CN(CC2CCN(c3ccc4c(c3)C(=O)N(C3CCC(=O)NC3=O)C4=O)CC2)CCN1CC1CCN(c2ccc(NC(=O)C3CCN(c4ccc(C#N)c(C(F)(F)F)c4)CC3)nc2)CC1` (stereo partly drawn) [Example 23, 1-(4-cyano-3-(trifluoromethyl)phenyl)-N-(5-(4-(((2R)-4-((1-(2-(2,6-dioxopiperidin-3-yl)-1,3-dioxoisoindolin-5-yl)piperidin-4-yl)methyl)-2-methylpiperazin-1-yl)methyl)piperidin-1-yl)pyridin-2-yl)piperidine-4-carboxamide], 0.01 µM produced 69% inhibition, 0.1 µM produced 98% inhibition and the inhibition at 1 µM worked out at 97%.

Values taken from US12122763B2, “Substituted piperidines for androgen receptor degradation” (UBIX THERAPEUTICS, INC., priority 2020, dated 2024).
